One assay addresses Cdc7/Dbf4 (Homo sapiens, UniProt O00311). Kind of assay: Cdc7 Biochemical Assay Method 3: Cdc7/Dbf4 Enzyme TR-FRET Assay measuring pS40MCM2. Particulars: 1 μM ATP, read-out: Biochemical Method 3 (pIC50) (converted). Put shortly: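 TR-FRET read-out (terbium anti-rabbit donor, streptavidin-Alexa Fluor488 acceptor, anti-Mcm2 pS40 antibody) of peptide phosphorylation after 120 min at 25° C; reaction held 1 μM ATP, 100 nM biotin-tagged peptide substrate and 2.5 nM enzyme complex.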

In assay [1] the test system is Cdc7 (pS40MCM2 levels in HCT116 cells). Kind of assay: Cdc7 Cell Pharmacodynamics Assay Method 2A: pS40MCM2 levels in HCT116 cells, 6 hours. The class given is cell-based. Particulars: Homo sapiens, HCT-116, read-out: Biomarker Method 2A (pEC50) (converted). Put shortly: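 HCT116 cells seeded at 20,000/well, settled overnight, then treated with compound (1:400 dilution from compound plate) for 6 h (Method 2A) or 18 h (Method 2B) at 37° C. Lysates captured on total-MCM2 antibody plates; pS40 MCM2 detected with rabbit anti-pMCM2 Ser40, HRP secondary and chemiluminescent substrate.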

Counter-ions that a name gives are not always drawn.

Cdc7/Dbf4, sequence (O00311 whole entry): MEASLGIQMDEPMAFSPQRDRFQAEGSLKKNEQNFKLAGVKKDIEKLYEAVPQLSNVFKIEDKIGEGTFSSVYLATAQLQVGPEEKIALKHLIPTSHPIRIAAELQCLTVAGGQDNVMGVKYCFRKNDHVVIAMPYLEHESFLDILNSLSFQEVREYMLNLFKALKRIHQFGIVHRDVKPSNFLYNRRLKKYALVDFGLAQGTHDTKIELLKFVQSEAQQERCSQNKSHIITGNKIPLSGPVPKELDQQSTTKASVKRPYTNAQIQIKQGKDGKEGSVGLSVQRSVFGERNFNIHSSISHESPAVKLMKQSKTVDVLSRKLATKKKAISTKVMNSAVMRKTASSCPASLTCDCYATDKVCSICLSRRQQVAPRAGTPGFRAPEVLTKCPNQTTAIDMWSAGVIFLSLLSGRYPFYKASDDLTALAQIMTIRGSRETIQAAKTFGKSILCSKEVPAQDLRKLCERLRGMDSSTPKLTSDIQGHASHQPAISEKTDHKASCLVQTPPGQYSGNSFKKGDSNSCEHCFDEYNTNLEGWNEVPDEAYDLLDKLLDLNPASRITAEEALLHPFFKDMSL
Cdc7/Dbf4, sequence (Q9UBU7 whole entry partner): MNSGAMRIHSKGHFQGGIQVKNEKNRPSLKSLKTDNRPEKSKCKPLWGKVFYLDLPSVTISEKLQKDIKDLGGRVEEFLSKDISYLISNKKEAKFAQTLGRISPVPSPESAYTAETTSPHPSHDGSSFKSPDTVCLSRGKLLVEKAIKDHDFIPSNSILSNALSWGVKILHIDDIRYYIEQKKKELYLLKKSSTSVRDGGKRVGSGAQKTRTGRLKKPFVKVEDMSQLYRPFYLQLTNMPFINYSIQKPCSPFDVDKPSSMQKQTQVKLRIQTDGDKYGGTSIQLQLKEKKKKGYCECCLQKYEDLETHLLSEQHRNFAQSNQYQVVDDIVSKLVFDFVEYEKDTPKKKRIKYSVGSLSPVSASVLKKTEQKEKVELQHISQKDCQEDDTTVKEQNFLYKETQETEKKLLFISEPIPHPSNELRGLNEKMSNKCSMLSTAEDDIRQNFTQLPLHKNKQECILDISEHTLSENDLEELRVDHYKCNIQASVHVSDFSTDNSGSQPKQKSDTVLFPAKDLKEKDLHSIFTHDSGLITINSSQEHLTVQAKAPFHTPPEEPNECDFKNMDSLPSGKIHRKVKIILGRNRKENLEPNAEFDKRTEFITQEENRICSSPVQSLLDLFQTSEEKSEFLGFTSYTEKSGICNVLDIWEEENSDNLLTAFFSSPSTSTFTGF

For the compound `C[C@@H]1CNCCN1c1nc(-c2ccncc2)[nH]c(=O)c1Cl` [Compound 364], on Cdc7/Dbf4, the IC50 is 1.41 nM. Moreover, in assay [1], the EC50 is 26.9 nM.

Turning to `C[C@H]1CN(c2nc(-c3ccncc3)[nH]c(=O)c2Cl)CCN1` [Compound 130], the IC50 on Cdc7/Dbf4 was 2.34 nM. Further, the EC50 in assay [1] was 776 nM.

Take `O=c1[nH]c(-c2ccncc2)nc(N2CCN(CC(F)F)CC2)c1Cl` [Compound 147]: the IC50 at Cdc7/Dbf4 is 1.55 nM. In assay [1], the EC50 is 427 nM.

Take `C[C@@H]1CNCCN1c1nc(-c2ccnc(F)c2)[nH]c(=O)c1Cl` [Compound 323]: the IC50 on Cdc7/Dbf4 was 0.537 nM. For the same compound, the EC50 in assay [1] was 12 nM.

Consider `O=c1[nH]c(-c2ccnc(F)c2)nc(N2CCCC(F)(F)C2)c1Cl` [Compound 90, 5-chloro-4-(3,3-difluoro-1-piperidyl)-2-(2-fluoro-4-pyridyl)-1H-pyrimidin-6-one], for which the IC50 at Cdc7/Dbf4 was 0.355 nM.

In the case of `CC(C)[C@H]1CN(c2nc(-c3ccnc(F)c3)[nH]c(=O)c2Cl)CCN1` [Compound 170], the IC50 on Cdc7/Dbf4 was 1.05 nM. In assay [1], the EC50 is 21.9 nM.

On to `O=c1[nH]c(-c2ccnc(F)c2)nc(N2CCNCC(F)(F)C2)c1Cl` [Compound 312, 5-chloro-4-(6,6-difluoro-1,4-diazepan-1-yl)-2-(2-fluoro-4-pyridyl)-1H-pyrimidin-6-one hydrochloride], for which, at Cdc7/Dbf4, the IC50 is 0.589 nM. For the same compound, the EC50 in assay [1] is 11.5 nM.

Regarding `N[C@H]1CCCN(c2nc(-c3ccnc(F)c3)[nH]c(=O)c2Cl)C1` [Compound 317], at Cdc7/Dbf4, the IC50 is 0.676 nM. Moreover, the EC50 in assay [1] was 219 nM.

Regarding `CC(C)(C)[C@H]1CN(c2nc(-c3ccncc3)[nH]c(=O)c2F)CCN1` [Compound 185], at Cdc7/Dbf4, the IC50 is 0.724 nM. Further, the EC50 in assay [1] was 85.1 nM.

`O=c1[nH]c(-c2ccnc(F)c2)nc(N2CCOCC2)c1Cl` [Compound 316]: the IC50 on Cdc7/Dbf4 was 0.525 nM. Moreover, the EC50 in assay [1] was 44.7 nM.

As for `O=c1[nH]c(-c2ccnc(F)c2)nc(N2CCNCC2)c1Cl` [Compound 360], the IC50 on Cdc7/Dbf4 is 0.871 nM. Besides, in assay [1], the EC50 was 83.2 nM.

As to `N[C@@H]1CCCN(c2nc(-c3ccnc(F)c3)[nH]c(=O)c2Cl)C1` [Compound 319], the IC50 at Cdc7/Dbf4 is 0.933 nM. Also, the EC50 in assay [1] was 126 nM.

Regarding `O=c1[nH]c(-c2ccncc2)nc(N2CCN[C@H](C(F)(F)F)C2)c1Cl` [Compound 139], on Cdc7/Dbf4, the IC50 is 4.07 nM. Further, in assay [1], the EC50 was 851 nM.

Take `O=c1[nH]c(-c2ccncc2)nc(N2CCN[C@@H](C(F)(F)F)C2)c1Cl` [Compound 180]: the IC50 at Cdc7/Dbf4 is 1.38 nM. For the same compound, in assay [1], the EC50 was 37.2 nM.

Values taken from patent US10919896B2, “Preparation and uses of pyrimidinone derivatives” (Cancer Research Technology Limited, priority 2016, dated 2021).
